In ChEMBL document CHEMBL4507304, “Data for DCP probe TP-021” (2021):

How the values were obtained:
[1] = target: AP2-associated protein kinase 1 (Homo sapiens) (UniProt Q2M2I8); conditions: Compound concentration 1000.0 nM
[2] = target: Tyrosine-protein kinase ABL1 (Homo sapiens) (UniProt P00519); conditions: Compound concentration 1000.0 nM
[3] = target: Activin receptor type-1 (Homo sapiens) (UniProt Q04771); conditions: Compound concentration 1000.0 nM
[4] = target: Cytoplasmic tyrosine-protein kinase BMX (Homo sapiens) (UniProt P51813); conditions: Compound concentration 1000.0 nM
[5] = target: Serine/threonine-protein kinase B-raf (Homo sapiens) (UniProt P15056); conditions: Compound concentration 1000.0 nM
[6] = target: Serine/threonine-protein kinase BRSK1 (Homo sapiens) (UniProt Q8TDC3); conditions: Compound concentration 1000.0 nM
[7] = target: Calcium/calmodulin-dependent protein kinase type II subunit alpha (Homo sapiens) (UniProt Q9UQM7); conditions: Compound concentration 1000.0 nM
[8] = target: Cyclin-dependent kinase-like 2 (Homo sapiens) (UniProt Q92772); conditions: Compound concentration 1000.0 nM
[9] = target: Dual specificity protein kinase CLK4 (Homo sapiens) (UniProt Q9HAZ1); conditions: Compound concentration 1000.0 nM
[10] = target: Macrophage colony-stimulating factor 1 receptor (Homo sapiens) (UniProt P07333); conditions: Compound concentration 1000.0 nM
[11] = target: Casein kinase I isoform delta (Homo sapiens) (UniProt P48730); conditions: Compound concentration 1000.0 nM
[12] = target: Casein kinase II subunit alpha' (Homo sapiens) (UniProt P19784); conditions: Compound concentration 1000.0 nM
[13] = target: Death-associated protein kinase 1 (Homo sapiens) (UniProt P53355); conditions: Compound concentration 1000.0 nM
[14] = target: Ephrin type-A receptor 8 (Homo sapiens) (UniProt P29322); conditions: Compound concentration 1000.0 nM
[15] = target: Receptor-type tyrosine-protein kinase FLT3 (Homo sapiens) (UniProt P36888); conditions: Compound concentration 1000.0 nM
[16] = target: Beta-adrenergic receptor kinase 1 (Homo sapiens) (UniProt P25098); conditions: Compound concentration 1000.0 nM
[17] = target: Homeodomain-interacting protein kinase 4 (Homo sapiens) (UniProt Q8NE63); conditions: Compound concentration 1000.0 nM
[18] = target: Serine/threonine-protein kinase LATS2 (Homo sapiens) (UniProt Q9NRM7); conditions: Compound concentration 1000.0 nM
[19] = target: LIM domain kinase 1 (Homo sapiens) (UniProt P53667); conditions: Compound concentration 1000.0 nM
[20] = target: Serine/threonine-protein kinase 10 (Homo sapiens) (UniProt O94804); conditions: Compound concentration 1000.0 nM
[21] = target: Mitogen-activated protein kinase kinase kinase kinase 4 (Homo sapiens) (UniProt O95819); conditions: Compound concentration 1000.0 nM
[22] = target: Dual specificity mitogen-activated protein kinase kinase 7 (Homo sapiens) (UniProt O14733); conditions: Compound concentration 1000.0 nM
[23] = target: Mitogen-activated protein kinase kinase kinase 11 (Homo sapiens) (UniProt Q16584); conditions: Compound concentration 1000.0 nM
[24] = target: Serine/threonine-protein kinase 24 (Homo sapiens) (UniProt Q9Y6E0); conditions: Compound concentration 1000.0 nM
[25] = target: Serine/threonine-protein kinase 38 (Homo sapiens) (UniProt Q15208); conditions: Compound concentration 1000.0 nM
[26] = target: Serine/threonine-protein kinase Nek1 (Homo sapiens) (UniProt Q96PY6); conditions: Compound concentration 1000.0 nM
[27] = target: Serine/threonine-protein kinase Nek10 (Homo sapiens) (UniProt Q6ZWH5); conditions: Compound concentration 1000.0 nM
[28] = target: Serine/threonine-protein kinase PAK 3 (Homo sapiens) (UniProt O75914); conditions: Compound concentration 1000.0 nM
[29] = target: Cyclin-dependent kinase 16 (Homo sapiens) (UniProt Q00536); conditions: Compound concentration 1000.0 nM
[30] = target: Platelet-derived growth factor receptor alpha (Homo sapiens) (UniProt P16234); conditions: Compound concentration 1000.0 nM
[31] = target: 3-phosphoinositide-dependent protein kinase 1 (Homo sapiens) (UniProt O15530); conditions: Compound concentration 1000.0 nM
[32] = target: Cyclin-dependent kinase 2 homolog (Plasmodium falciparum (isolate 3D7)) (UniProt P61075); conditions: Compound concentration 1000.0 nM
[33] = system: Phosphatidylinositol 4,5-bisphosphate 3-kinase catalytic subunit alpha isoform (Homo sapiens), P42336 [H1047Y]; conditions: Compound concentration 1000.0 nM
[34] = target: Serine/threonine-protein kinase N1 (Homo sapiens) (UniProt Q16512); conditions: Compound concentration 1000.0 nM
[35] = target: Serine/threonine-protein kinase PLK2 (Homo sapiens) (UniProt Q9NYY3); conditions: Compound concentration 1000.0 nM
[36] = target: Protein kinase C eta type (Homo sapiens) (UniProt P24723); conditions: Compound concentration 1000.0 nM
[37] = target: Serine/threonine-protein kinase D1 (Homo sapiens) (UniProt Q15139); conditions: Compound concentration 1000.0 nM
[38] = system: Proto-oncogene tyrosine-protein kinase receptor Ret (Homo sapiens), P07949 [M918T]; conditions: Compound concentration 1000.0 nM
[39] = system: Proto-oncogene tyrosine-protein kinase receptor Ret (Homo sapiens), P07949 [V804L]; conditions: Compound concentration 1000.0 nM
[40] = target: Ribosomal protein S6 kinase alpha-2 (Homo sapiens) (UniProt Q15349); conditions: Compound concentration 1000.0 nM
[41] = target: Serine/threonine-protein kinase Sgk3 (Homo sapiens) (UniProt Q96BR1); conditions: Compound concentration 1000.0 nM
[42] = target: SNF-related serine/threonine-protein kinase (Homo sapiens) (UniProt Q9NRH2); conditions: Compound concentration 1000.0 nM
[43] = target: SRSF protein kinase 2 (Homo sapiens) (UniProt P78362); conditions: Compound concentration 1000.0 nM
[44] = target: 5-hydroxytryptamine receptor 5A (Homo sapiens) (UniProt P47898); conditions: Compound concentration 10.0 uM
[45] = target: Sigma intracellular receptor 2 (Homo sapiens) (UniProt Q5BJF2); conditions: Compound concentration 10.0 uM

Chain of 3-phosphoinositide-dependent protein kinase 1 (Homo sapiens) (O15530 whole entry): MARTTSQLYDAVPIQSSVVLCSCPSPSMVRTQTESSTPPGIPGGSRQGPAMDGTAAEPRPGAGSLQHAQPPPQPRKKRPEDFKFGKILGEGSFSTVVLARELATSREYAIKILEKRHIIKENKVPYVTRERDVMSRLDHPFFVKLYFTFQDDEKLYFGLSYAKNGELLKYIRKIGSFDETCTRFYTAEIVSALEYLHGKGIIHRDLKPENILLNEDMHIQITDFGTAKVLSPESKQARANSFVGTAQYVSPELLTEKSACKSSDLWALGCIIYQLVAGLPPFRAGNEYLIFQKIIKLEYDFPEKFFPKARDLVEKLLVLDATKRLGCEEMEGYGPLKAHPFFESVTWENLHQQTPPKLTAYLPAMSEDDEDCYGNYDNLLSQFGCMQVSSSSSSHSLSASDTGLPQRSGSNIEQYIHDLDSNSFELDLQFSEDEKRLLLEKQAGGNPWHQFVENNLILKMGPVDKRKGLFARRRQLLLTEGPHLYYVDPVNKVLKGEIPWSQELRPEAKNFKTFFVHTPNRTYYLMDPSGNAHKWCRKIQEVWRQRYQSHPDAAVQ
Chain of Serine/threonine-protein kinase B-raf (Homo sapiens) (P15056 whole entry): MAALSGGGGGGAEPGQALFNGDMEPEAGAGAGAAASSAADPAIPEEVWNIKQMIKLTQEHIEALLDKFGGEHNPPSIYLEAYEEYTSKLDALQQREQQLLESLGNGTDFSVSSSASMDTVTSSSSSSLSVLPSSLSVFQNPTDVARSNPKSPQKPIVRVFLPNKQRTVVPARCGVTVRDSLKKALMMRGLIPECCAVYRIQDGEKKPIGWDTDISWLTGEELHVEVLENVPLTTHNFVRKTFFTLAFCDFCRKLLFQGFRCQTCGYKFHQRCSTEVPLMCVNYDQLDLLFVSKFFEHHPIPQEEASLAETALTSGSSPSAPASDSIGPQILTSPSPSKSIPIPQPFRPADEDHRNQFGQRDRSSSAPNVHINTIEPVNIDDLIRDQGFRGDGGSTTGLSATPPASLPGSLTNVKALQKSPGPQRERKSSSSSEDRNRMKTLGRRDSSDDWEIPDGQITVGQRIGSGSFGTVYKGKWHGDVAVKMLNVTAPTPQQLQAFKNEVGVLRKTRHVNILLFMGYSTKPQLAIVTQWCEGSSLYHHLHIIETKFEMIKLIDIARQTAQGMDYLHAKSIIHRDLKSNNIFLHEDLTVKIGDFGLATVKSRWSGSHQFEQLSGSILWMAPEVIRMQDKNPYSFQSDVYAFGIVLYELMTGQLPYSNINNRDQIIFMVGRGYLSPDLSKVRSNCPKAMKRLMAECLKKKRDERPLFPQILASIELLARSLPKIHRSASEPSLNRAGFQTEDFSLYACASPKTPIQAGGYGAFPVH
Chain of Mitogen-activated protein kinase kinase kinase 11 (Homo sapiens) (Q16584 whole entry, looked up): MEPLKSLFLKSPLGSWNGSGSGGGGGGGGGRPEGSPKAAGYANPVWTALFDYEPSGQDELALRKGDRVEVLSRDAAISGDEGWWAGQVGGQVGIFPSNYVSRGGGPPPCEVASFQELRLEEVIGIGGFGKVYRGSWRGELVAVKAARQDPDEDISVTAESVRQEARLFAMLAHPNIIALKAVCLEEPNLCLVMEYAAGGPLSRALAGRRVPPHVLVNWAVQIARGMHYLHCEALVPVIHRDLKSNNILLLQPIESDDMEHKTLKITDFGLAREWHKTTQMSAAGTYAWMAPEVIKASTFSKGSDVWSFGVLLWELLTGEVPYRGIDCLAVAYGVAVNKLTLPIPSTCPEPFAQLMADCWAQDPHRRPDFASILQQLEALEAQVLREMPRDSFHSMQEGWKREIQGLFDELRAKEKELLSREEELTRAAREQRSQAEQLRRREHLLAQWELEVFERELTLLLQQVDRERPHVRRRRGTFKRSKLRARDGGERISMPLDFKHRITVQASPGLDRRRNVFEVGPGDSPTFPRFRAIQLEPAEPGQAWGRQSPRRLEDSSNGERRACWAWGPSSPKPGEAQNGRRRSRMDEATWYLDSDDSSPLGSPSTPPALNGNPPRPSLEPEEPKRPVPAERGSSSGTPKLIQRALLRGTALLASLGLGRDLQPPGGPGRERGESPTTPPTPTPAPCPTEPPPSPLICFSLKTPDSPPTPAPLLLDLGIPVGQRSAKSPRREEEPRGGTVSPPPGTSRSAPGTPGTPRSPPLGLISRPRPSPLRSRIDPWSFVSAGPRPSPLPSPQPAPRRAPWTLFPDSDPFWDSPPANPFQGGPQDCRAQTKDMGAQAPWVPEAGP
Chain of Serine/threonine-protein kinase 24 (Homo sapiens) (Q9Y6E0 whole entry, looked up): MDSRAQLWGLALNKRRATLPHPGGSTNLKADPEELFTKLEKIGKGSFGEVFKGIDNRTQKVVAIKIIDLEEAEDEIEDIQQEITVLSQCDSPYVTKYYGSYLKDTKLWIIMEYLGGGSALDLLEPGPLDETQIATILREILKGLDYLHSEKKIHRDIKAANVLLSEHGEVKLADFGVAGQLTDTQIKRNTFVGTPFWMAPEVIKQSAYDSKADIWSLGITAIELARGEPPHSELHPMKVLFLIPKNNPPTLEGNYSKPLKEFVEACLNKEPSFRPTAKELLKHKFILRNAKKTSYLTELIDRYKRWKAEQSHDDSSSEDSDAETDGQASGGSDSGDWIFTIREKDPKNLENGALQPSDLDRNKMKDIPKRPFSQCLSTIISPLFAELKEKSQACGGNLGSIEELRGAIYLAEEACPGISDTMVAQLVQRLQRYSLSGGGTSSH
Chain of Serine/threonine-protein kinase BRSK1 (Homo sapiens) (Q8TDC3 whole entry): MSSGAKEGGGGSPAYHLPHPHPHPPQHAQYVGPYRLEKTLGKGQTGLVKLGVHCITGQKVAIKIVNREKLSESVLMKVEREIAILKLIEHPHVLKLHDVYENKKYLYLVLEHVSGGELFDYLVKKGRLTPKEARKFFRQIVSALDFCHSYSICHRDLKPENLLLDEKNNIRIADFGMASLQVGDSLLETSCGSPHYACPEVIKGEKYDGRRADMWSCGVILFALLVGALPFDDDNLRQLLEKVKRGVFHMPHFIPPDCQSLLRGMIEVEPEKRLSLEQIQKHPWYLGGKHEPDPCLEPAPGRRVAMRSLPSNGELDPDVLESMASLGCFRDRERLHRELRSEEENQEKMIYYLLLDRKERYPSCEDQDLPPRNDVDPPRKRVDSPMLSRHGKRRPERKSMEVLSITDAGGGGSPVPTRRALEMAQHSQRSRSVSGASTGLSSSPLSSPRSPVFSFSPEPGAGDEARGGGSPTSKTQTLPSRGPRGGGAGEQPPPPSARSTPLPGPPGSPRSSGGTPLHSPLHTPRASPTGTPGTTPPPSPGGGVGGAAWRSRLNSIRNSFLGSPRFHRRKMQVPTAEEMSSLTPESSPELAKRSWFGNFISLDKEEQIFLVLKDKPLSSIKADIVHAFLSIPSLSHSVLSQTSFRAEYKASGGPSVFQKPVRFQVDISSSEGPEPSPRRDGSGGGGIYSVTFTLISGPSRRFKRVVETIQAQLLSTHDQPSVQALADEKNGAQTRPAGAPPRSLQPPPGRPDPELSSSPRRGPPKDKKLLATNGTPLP
Chain of Serine/threonine-protein kinase Nek10 (Homo sapiens) (Q6ZWH5 whole entry): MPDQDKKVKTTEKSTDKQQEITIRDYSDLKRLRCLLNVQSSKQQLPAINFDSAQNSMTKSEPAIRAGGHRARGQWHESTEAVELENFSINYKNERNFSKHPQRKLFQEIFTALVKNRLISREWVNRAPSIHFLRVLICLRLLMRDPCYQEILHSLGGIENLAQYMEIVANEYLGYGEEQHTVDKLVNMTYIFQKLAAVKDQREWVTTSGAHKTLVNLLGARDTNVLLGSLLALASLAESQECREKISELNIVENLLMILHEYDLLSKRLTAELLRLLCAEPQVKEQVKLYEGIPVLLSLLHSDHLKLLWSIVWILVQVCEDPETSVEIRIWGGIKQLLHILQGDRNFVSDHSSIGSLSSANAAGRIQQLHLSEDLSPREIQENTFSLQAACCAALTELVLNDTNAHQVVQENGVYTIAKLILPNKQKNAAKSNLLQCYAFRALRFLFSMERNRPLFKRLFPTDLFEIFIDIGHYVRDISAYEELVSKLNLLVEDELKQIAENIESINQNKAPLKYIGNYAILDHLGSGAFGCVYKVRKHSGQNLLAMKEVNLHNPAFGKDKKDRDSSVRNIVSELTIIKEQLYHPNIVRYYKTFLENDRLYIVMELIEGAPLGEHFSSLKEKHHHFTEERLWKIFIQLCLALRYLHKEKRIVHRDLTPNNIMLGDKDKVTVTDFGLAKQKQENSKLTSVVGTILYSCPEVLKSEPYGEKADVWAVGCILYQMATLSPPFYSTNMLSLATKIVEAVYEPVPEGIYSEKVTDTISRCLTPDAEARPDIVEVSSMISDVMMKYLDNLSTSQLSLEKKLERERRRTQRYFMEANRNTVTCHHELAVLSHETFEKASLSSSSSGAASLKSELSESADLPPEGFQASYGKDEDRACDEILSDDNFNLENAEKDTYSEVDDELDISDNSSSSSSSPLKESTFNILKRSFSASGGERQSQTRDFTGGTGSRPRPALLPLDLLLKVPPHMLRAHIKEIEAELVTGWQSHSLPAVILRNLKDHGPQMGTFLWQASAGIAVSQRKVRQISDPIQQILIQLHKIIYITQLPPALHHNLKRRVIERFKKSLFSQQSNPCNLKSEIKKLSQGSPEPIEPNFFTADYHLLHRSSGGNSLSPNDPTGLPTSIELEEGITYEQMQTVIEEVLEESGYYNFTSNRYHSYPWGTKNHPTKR
Chain of Dual specificity protein kinase CLK4 (Homo sapiens) (Q9HAZ1 whole entry, looked up): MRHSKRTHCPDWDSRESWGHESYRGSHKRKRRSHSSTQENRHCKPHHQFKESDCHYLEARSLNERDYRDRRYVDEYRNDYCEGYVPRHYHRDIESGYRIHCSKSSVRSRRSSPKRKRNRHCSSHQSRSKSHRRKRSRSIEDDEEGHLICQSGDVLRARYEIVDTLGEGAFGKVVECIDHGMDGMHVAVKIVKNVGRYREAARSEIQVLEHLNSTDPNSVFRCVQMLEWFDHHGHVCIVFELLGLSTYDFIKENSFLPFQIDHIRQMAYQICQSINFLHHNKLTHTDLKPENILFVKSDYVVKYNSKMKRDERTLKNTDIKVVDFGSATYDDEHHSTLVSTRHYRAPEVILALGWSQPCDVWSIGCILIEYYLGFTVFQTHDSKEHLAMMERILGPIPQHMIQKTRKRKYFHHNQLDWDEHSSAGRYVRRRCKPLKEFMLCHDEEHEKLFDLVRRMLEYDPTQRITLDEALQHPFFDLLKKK

N#Cc1ccc(Nc2ccc3[nH]c(=O)[nH]c3c2)c(Cl)c1
residual activity [1]: 100%
residual activity [2]: 100%
residual activity [3]: 89%
residual activity [4]: 100%
residual activity [5]: 100%
residual activity [6]: 100%
residual activity [7]: 84%
residual activity [8]: 100%
residual activity [9]: 98%
residual activity [10]: 100%
residual activity [11]: 100%
residual activity [12]: 83%
residual activity [13]: 100%
residual activity [14]: 100%
residual activity [15]: 97%
residual activity [16]: 100%
residual activity [17]: 100%
residual activity [18]: 95%
residual activity [19]: 100%
residual activity [20]: 100%
residual activity [21]: 77%
residual activity [22]: 100%
residual activity [23]: 100%
residual activity [24]: 100%
residual activity [25]: 95%
residual activity [26]: 55%
residual activity [27]: 100%
residual activity [28]: 100%
residual activity [29]: 100%
residual activity [30]: 100%
residual activity [31]: 97%
residual activity [32]: 100%
residual activity [33]: 100%
residual activity [34]: 100%
residual activity [35]: 86%
residual activity [36]: 97%
residual activity [37]: 82%
residual activity [38]: 100%
residual activity [39]: 100%
residual activity [40]: 100%
residual activity [41]: 100%
residual activity [42]: 100%
residual activity [43]: 100%
inhibition [44]: -7.6%
inhibition [45]: -4.12%

O=C1CCc2cc(Nc3cc(OC4CCOCC4)c([N+](=O)[O-])cc3Cl)ccc2N1
residual activity [1]: 100%
residual activity [2]: 100%
residual activity [3]: 100%
residual activity [4]: 69%
residual activity [5]: 100%
residual activity [6]: 100%
residual activity [7]: 85%
residual activity [8]: 92%
residual activity [9]: 88%
residual activity [10]: 95%
residual activity [11]: 90%
residual activity [12]: 76%
residual activity [13]: 90%
residual activity [14]: 100%
residual activity [15]: 99%
residual activity [16]: 87%
residual activity [17]: 98%
residual activity [18]: 80%
residual activity [19]: 100%
residual activity [20]: 100%
residual activity [21]: 100%
residual activity [22]: 100%
residual activity [23]: 100%
residual activity [24]: 97%
residual activity [25]: 88%
residual activity [26]: 40%
residual activity [27]: 100%
residual activity [28]: 100%
residual activity [29]: 88%
residual activity [30]: 97%
residual activity [31]: 100%
residual activity [32]: 100%
residual activity [33]: 100%
residual activity [34]: 100%
residual activity [35]: 92%
residual activity [36]: 86%
residual activity [37]: 87%
residual activity [38]: 94%
residual activity [39]: 91%
residual activity [40]: 100%
residual activity [41]: 100%
residual activity [42]: 100%
residual activity [43]: 100%
inhibition [44]: 6.14%
inhibition [45]: 27.1%
